Ki and Km data for 3 molecules are collected here from publication PMC3469657, “De novo GTP Biosynthesis Is Critical for Virulence of the Fungal Pathogen Cryptococcus neoformans” (PLoS Pathogens, 2012).

The target of series [1] is T1, CnImd1 (IMP dehydrogenase, CnIMPDH, VNI) (Cryptococcus neoformans, UniProt J9VET5).
T1 construct: gene CNAG_00441; recombinant, 544 residues; 395 residues modelled per monomer
In words: crystal structure with IMP and MPA; steady-state kinetics (tight-binding uncompetitive vs NAD+). The class given is biochemical.

Series [2] addresses T2, CgImd1 (IMP dehydrogenase, CgIMPDH, VGIV) (Cryptococcus bacillisporus, UniProt E3P6S3).
T2 construct: gene IMD1; recombinant CgImd1 expressed in E. coli
Kind of series: NADH production at […] nm, tight-binding inhibition fits. The class given is biochemical.

Series [3] has as its system NC(=O)c1ccc[n+]([C@@H]2O[C@H](COP(=O)([O-])OP(=O)(O)OC[C@H]3O[C@@H](n4cnc5c(N)ncnc54)[C@H](O)[C@@H]3O)[C@@H](O)[C@H]2O)c1. Kind of series: purified protein. The settings on record: IMP NAD+ site; substrate inhibition attributed to an E-XMP*•NAD+ complex; varied: cofactor.

T1 sequence (J9VET5 entry or part of it): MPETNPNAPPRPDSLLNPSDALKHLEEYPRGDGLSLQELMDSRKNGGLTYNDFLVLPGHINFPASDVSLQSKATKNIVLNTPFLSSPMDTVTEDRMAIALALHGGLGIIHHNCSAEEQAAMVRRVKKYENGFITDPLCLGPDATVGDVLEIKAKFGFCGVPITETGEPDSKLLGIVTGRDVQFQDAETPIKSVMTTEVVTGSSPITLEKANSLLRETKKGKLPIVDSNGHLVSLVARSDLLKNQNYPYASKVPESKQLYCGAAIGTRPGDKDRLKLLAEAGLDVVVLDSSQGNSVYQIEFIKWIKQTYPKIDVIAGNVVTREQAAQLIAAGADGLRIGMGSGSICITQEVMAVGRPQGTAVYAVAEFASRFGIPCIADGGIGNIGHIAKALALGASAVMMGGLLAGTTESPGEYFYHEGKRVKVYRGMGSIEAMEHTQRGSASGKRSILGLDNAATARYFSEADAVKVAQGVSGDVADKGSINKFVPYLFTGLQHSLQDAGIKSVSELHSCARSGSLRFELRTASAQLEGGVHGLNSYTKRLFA
T2 sequence (E3P6S3 entry or part of it): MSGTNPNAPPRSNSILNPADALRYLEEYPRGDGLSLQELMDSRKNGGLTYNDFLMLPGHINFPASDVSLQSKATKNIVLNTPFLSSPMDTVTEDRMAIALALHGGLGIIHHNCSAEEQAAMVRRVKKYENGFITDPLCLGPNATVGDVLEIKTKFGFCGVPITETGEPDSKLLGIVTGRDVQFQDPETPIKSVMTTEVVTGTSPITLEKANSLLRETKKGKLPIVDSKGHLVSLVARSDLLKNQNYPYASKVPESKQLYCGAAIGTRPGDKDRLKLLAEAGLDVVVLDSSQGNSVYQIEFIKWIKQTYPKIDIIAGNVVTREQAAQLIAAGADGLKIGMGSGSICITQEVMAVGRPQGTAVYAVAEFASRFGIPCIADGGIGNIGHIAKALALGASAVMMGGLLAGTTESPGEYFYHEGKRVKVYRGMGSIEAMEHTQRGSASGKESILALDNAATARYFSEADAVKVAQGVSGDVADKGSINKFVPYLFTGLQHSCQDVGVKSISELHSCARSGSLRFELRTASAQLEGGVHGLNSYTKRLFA

For `COc1c(C)c2c(c(O)c1C/C=C(\C)CCC(=O)O)C(=O)OC2` [MPA, mycophenolic acid], the Ki in series [1] is 240 ± 18 nM; in series [2], 96 ± 5 nM.
As to “CgImd1 (IMP dehydrogenase, CgIMPDH, VGIV) (Cryptococcus bacillisporus)”, in series [3], the Km was 532 ± 65 µM.
On the same count and under the same terms, under “CnImd1 (IMP dehydrogenase, CnIMPDH, VNI) (Cryptococcus neoformans H99)” stands 634 ± 97 µM.
